Experimental data published in US20130190407A1, “CALCIUM RECEPTOR-ACTIVE MOLECULES” (NPS Pharmaceuticals, Inc., priority 1991, published 2013).

Experiments:
[1] = target: T1, osteoclast calcium receptor (Rattus norvegicus, UniProt P48442); test: [Ca2+]i (indo-1) in single rat osteoclasts; format: cell-based
T1 sequence (P48442 20-1079): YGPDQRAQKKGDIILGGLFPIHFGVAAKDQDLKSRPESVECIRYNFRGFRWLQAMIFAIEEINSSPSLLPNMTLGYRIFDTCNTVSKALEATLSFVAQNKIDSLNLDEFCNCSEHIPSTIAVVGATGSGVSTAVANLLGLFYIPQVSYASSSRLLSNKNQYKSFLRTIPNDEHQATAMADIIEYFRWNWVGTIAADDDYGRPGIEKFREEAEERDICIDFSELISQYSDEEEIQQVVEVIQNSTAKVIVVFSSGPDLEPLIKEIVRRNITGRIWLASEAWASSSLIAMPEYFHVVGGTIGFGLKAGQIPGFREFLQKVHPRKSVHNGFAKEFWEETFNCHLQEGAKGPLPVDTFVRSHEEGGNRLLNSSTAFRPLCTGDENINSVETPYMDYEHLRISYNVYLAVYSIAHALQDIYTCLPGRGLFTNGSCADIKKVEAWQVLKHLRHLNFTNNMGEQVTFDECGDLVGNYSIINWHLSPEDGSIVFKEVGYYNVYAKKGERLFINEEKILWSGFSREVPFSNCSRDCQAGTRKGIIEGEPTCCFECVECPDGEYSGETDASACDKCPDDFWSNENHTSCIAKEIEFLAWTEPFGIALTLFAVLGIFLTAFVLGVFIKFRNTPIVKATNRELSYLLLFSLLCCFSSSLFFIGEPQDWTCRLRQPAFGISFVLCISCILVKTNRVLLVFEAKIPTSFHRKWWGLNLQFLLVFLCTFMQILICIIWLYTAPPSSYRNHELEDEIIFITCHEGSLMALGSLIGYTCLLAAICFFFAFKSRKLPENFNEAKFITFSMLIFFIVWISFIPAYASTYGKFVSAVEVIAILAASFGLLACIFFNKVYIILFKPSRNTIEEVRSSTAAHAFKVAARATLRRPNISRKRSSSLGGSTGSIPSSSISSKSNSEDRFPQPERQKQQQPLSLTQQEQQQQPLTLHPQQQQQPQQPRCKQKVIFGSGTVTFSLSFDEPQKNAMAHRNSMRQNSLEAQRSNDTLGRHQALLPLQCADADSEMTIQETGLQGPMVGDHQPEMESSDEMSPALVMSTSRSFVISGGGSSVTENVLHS

[2] = system: Bovine parathyroid cells; test: PTH secretion from bovine parathyroid cells; format: cell-based; settings: concentrations that mobilize intracellular Ca2+
Procedure: (§1) PTH secretion was measured by first suspending cells in PCB containing 0.5 mM CaCl2 and 0.1% BSA.
Counting of samples and data reduction were performed on a Packard Cobra 5005 gamma counter.

[3] = system: human parathyroid cells; test: PTH secretion from human parathyroid cells; format: cell-based; settings: concentrations that mobilize intracellular Ca2+
Procedure: as §1
For human cells, a commercially available radioimmunoassay kit (INS-PTH; Nichols Institute, Los Angeles, Calif.) which recognizes intact and N-terminal human PTH was used because GW-1 antibody recognizes human PTH poorly.

[4] = target: T2, C-cell calcium receptor (Rattus norvegicus, UniProt P48442); test: [Ca2+]i in rat medullary thyroid carcinoma C-cell line (44-2 cells); format: cell-based; settings: 1 mM extracellular Ca2+, read-out: EC50 for increase in [Ca2+]i
T2 construct: cultured cell lines expressing the C-cell phenotype (e.g., rat medullary thyroid carcinoma cells; rMTC 6-23 cells); host or cells: rMTC 6-23 rat medullary thyroid carcinoma cells
T2 sequence (P48442 20-1079): T1 sequence (P48442 20-1079)
Source text: C-cells appear to express a calcium receptor that is structurally similar to that present on parathyroid cells (see Example 31). […] Thus, compounds in this structural series appear to activate the C-cell calcium receptor.

[5] = system: thyroidectomized animals; test: Hypocalcemic response in thyroidectomized rats; format: in vivo, rat; settings: 3 to 100 mg/kg p.o.
Source text: In subsequent studies, rats received a thyroidectomy (parathyroid glands intact). This surgical procedure effectively removed the C-cells secreting calcitonin and therefore enabled the relative contributions of PTH and calcitonin to the hypocalcemic effect of this compound to be determined. […] The only difference was that the rate of onset of the hypocalcemic response was somewhat delayed in thyroidectomized animals. […] Stimulatory effects of this compound on calcitonin secretion increases the rate of onset, but not the extent, of hypocalcemia.

Row | SMILES | compounds that caused any large increase in [Ca2+]i [1] | effect on response to subsequent extracellular Ca2+ [1] | increase in [Ca2+]i [1] | EC50 OSTEOCLAST ([1]; Table 6, rat osteoclasts, indo-1) | PTH secretion [2] | PTH secretion [3] | EC50 [4] [µM] | hypocalcemic response [5]
1 | NC[C@@H]1O[C@H](O[C@H]2[C@@H](O)[C@H](O[C@@H]3[C@@H](O)[C@H](N)C[C@H](N)[C@H]3O[C@H]3O[C@H](CN)[C@@H](O)[C@H](O)[C@H]3N)O[C@@H]2CO)[C@H](N)[C@@H](O)[C@@H]1O [Neomycin B, neomycin B] | none | did not block the increase | failed to evoke any increase | inactive | inhibited PTH secretion to the same extent as extracellular Ca^2+ | inhibited PTH secretion |  | 
2 | COc1cccc([C@@H](C)NCCCc2ccccc2)c1 (single isomer, unassigned) [NPS R-467] |  |  |  |  |  |  | 1.9 | 
3 | COc1cccc([C@@H](C)NCCCc2ccccc2Cl)c1 [NPS R-568, (R)-(+)-N-[3-(2-chlorophenyl)propyl]-α-methyl-3-methoxybenzylamine] |  |  |  |  |  |  | 2.2 | hypocalcemic response equal in magnitude to that produced in sham-operated animals
